According to patent US12286428B2 (BRISTOL-MYERS SQUIBB COMPANY, priority 2019, dated 2025):

Biological target: T1, IRAK4 (Homo sapiens, UniProt Q9NWZ3)
T1 sequence (Q9NWZ3 1-460): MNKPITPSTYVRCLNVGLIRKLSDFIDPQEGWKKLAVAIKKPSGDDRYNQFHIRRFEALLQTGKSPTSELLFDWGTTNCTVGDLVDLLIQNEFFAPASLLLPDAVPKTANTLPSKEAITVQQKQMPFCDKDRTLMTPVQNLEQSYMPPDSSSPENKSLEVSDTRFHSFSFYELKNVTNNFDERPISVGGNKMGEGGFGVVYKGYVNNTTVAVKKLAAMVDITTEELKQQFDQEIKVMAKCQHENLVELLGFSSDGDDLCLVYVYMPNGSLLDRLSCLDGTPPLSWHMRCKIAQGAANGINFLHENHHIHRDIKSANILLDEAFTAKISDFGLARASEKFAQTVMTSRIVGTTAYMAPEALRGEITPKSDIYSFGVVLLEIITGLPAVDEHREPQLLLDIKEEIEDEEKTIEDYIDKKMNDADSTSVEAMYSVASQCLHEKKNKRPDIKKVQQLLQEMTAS
Assay: IRAK4 Inhibition Assay
Type: biochemical
Settings: ATP 500 μM; FL-IPTSPITTTYFFFKKK peptide […]; IRAK4 0.6 nM; 60 min room temperature; Caliper LABCHIP 3000
Description: The assays were performed in U-bottom 384-well plates. […] The reaction was initiated by the combination of IRAK4 with substrates and test compounds. The reaction mixture was incubated at room temperature for 60 min. and terminated by adding 45 μL of 35 mM EDTA to each sample. The reaction mixture was analyzed on the Caliper LABCHIP® 3000 (Caliper, Hopkinton, MA) by electrophoretic separation of the fluorescent substrate and phosphorylated product. […] The final concentrations of reagents in the assays are ATP, 500 μM; FL-[…] peptide 1.5 μM; IRAK4, 0.6 nM; and DMSO, 1.6%.

IC50 [µM]	Compound
0.0206	NC(=O)c1cc2cccc(OC[C@@H]3CCC(=O)N3)c2n2ccnc12 [Example 1, (S)-9-((5-oxopyrrolidin-2-yl)methoxy)imidazo[1,2-a]quinoline-4-carboxamide]
0.015	CC[C@@H]1CC(=O)N[C@@H]1COc1cccc2cc(C(N)=O)c3nccn3c12 [Example 2, 9-(((2S,3R)-3-ethyl-5-oxopyrrolidin-2-yl)methoxy)imidazo[1,2-a]quinoline-4-carboxamide]
0.0017	CC[C@H]1CC(=O)N[C@@H]1COc1cccc2cc(C(N)=O)c3nccn3c12 [Example 3, 9-(((2S,3S)-3-ethyl-5-oxopyrrolidin-2-yl)methoxy)imidazo[1,2-a]quinoline-4-carboxamide]
0.0026	CC[C@H]1[C@@H](COc2cccc3cc(C(N)=O)c4nccn4c23)NC(=O)[C@@H]1F [Example 4, 9-(((2S,3S,4R)-3-ethyl-4-fluoro-5-oxopyrrolidin-2-yl)methoxy)imidazo[1,2-a]quinoline-4-carboxamide]
0.518	CC[C@H]1[C@@H](COc2cccc3cc(C(N)=O)c4nccn4c23)NC(=O)[C@@]1(C)F [Example 6, 9-(((2S,3 S,4S)-3-ethyl-4-fluoro-4-methyl-5-oxopyrrolidin-2-yl)methoxy)imidazo[1,2-a]quinoline-4-carboxamide]
0.243	NC(=O)c1cc2cccc(OC[C@H]3COCC(=O)N3)c2n2ccnc12 [Example 7, (R)-9-((5-oxomorpholin-3-yl)methoxy)imidazo[1,2-a]quinoline-4-carboxamide]
1.43	CC[C@@H]1[C@H](F)C(=O)N[C@@H]1COc1cccc2cc(C(N)=O)c3nc(C(C)(C)O)cn3c12 [Example 13, 9-(((2S,3S,4S)-3-ethyl-4-fluoro-5-oxopyrrolidin-2-yl)methoxy)-2-(2-hydroxypropan-2-yl)imidazo[1,2-a]quinoline-4-carboxamide]
0.262	CC[C@H]1OC(=O)N[C@H]1COc1nccc2cc(C(N)=O)c3nccn3c12 [Example 23, 1-(((4S,5R)-5-ethyl-2-oxooxazolidin-4-yl)methoxy)imidazo[1,2-a][1,7]naphthyridine-6-carboxamide]
0.176	CC[C@@H]1OC(=O)N[C@H]1COc1nccc2cc(C(N)=O)c3nccn3c12 [Example 24, 1-(((4S,5S)-5-ethyl-2-oxooxazolidin-4-yl)methoxy)imidazo[1,2-a][1,7]naphthyridine-6-carboxamide]
1.93	CC[C@H]1OCC(=O)N[C@H]1COc1nccc2cc(C(N)=O)c3nccn3c12 [Example 25, 1-(((2R,3S)-2-ethyl-5-oxomorpholin-3-yl)methoxy)imidazo[1,2-a][1,7]naphthyridine-6-carboxamide]
0.0804	CC[C@@H]1OCC(=O)N[C@@H]1COc1nccc2cc(C(N)=O)c3nccn3c12 [Example 26, 1-(((2S,3R)-2-ethyl-5-oxomorpholin-3-yl)methoxy)imidazo[1,2-a][1,7]naphthyridine-6-carboxamide]
1.82	NC(=O)c1cc2ccnc(OC[C@@H]3CNC(=O)N3)c2n2ccnc12 [Example 27, (S)-1-((2-oxoimidazolidin-4-yl)methoxy)imidazo[1,2-a][1,7]naphthyridine-6-carboxamide]
0.225	CC[C@@H]1CC(=O)N[C@@H]1COc1nc(C)cc2cc(C(N)=O)c3nccn3c12 [Example 28, 1-(((2S,3R)-3-ethyl-5-oxopyrrolidin-2-yl)methoxy)-3-methylimidazo[1,2-a][1,7]naphthyridine-6-carboxamide]
0.601	CC[C@@H]1CC(=O)N[C@@H]1COc1nc(C)cc2cc(C(N)=O)c3nc(C)cn3c12 [Example 29, 1-(((2S,3R)-3-ethyl-5-oxopyrrolidin-2-yl)methoxy)-3,8-dimethylimidazo[1,2-a][1,7]naphthyridine-6-carboxamide]
1.06	CC[C@H]1CC(=O)N[C@@H]1COc1nccc2cc(C(N)=O)c3nc(C(F)(F)F)cn3c12 [Example 31, 1-(((2S,3S)-3-ethyl-5-oxopyrrolidin-2-yl)methoxy)-8-(trifluoromethyl)imidazo[1,2-a][1,7]naphthyridine-6-carboxamide]
0.062	CC[C@@H]1[C@H](F)C(=O)N(CO)[C@@H]1COc1nccc2cc(C(N)=O)c3nccn3c12 [Example 32]
0.0603	CC[C@@H]1[C@H](F)C(=O)N[C@@H]1COc1cccc2cc(C(N)=O)c3ncnn3c12 [Example 38, 9-(((2S,3S,4S)-3-ethyl-4-fluoro-5-oxopyrrolidin-2-yl)methoxy)-[1,2,4]triazolo[1,5-a]quinoline-4-carboxamide]
0.0391	CC[C@@H]1[C@H](F)C(=O)N[C@@H]1COc1cccc2cc(C(N)=O)c3nc(C)nn3c12 [Example 40, 9-(((2S,3S,4S)-3-ethyl-4-fluoro-5-oxopyrrolidin-2-yl)methoxy)-2-methyl-[1,2,4]triazolo[1,5-a]quinoline-4-carboxamide]
0.0422	CC[C@@H]1CC(=O)N[C@@H]1COc1cccc2cc(C(N)=O)c3nncn3c12 [Example 41, 9-(((2S,3R)-3-ethyl-5-oxopyrrolidin-2-yl)methoxy)-[1,2,4]triazolo[4,3-a]quinoline-4-carboxamide]
0.29	CC[C@H]1CC(=O)N[C@@H]1COc1cccc2cc(C(N)=O)c3nncn3c12 [Example 42, 9-(((2S,3S)-3-ethyl-5-oxopyrrolidin-2-yl)methoxy)-[1,2,4]triazolo[4,3-a]quinoline-4-carboxamide]
0.0162	CC[C@@H]1[C@H](F)C(=O)N[C@@H]1COc1cccc2cc(C(N)=O)c3nncn3c12 [Example 43, 9-(((2S,3S,4S)-3-ethyl-4-fluoro-5-oxopyrrolidin-2-yl)methoxy)-[1,2,4]triazolo[4,3-a]quinoline-4-carboxamide]
0.07	CC[C@@H]1[C@H](F)C(=O)N[C@@H]1COc1cccc2cc(C(N)=O)c3nnnn3c12 [Example 45, 9-(((2S,3S,4S)-3-ethyl-4-fluoro-5-oxopyrrolidin-2-yl)methoxy)tetrazolo[1,5-a]quinoline-4-carboxamide]
0.0781	CC[C@@H]1[C@H](F)C(=O)N[C@@H]1COc1nccc2cc(C(N)=O)c3ncnn3c12 [Example 47, 9-(((2S,3S,4S)-3-ethyl-4-fluoro-5-oxopyrrolidin-2-yl)methoxy)-[1,2,4]triazolo[1,5-a][1,7]naphthyridine-4-carboxamide]
0.112	CC[C@@H]1CC(=O)N[C@@H]1COC1=C(F)C=CC2C=C(C(N)=O)c3nccn3C12 (stereo partly drawn) [Example 59, 9-(((2S,3R)-3-ethyl-5-oxopyrrolidin-2-yl)methoxy)-8-fluoro-5a,9a-dihydroimidazo[1,2-a]quinoline-4-carboxamide]
0.35	CC[C@@H]1CC(=O)N[C@@H]1COC1=CC=CC2C=C(C#N)c3nccn3C12 (stereo partly drawn) [Example 60, 9-(((2S,3R)-3-ethyl-5-oxopyrrolidin-2-yl)methoxy)-5a,9a-dihydroimidazo[1,2-a]quinoline-4-carbonitrile]
0.0944	CC[C@@H]1[C@H](F)C(=O)N[C@@H]1COC1=CC=CC2C(NC)=C(C(N)=O)c3nccn3C12 (stereo partly drawn) [Example 61, 9-(((2S,3S,4S)-3-ethyl-4-fluoro-5-oxopyrrolidin-2-yl)methoxy)-5-(methylamino)-5a,9a-dihydroimidazo[1,2-a]quinoline-4-carboxamide]
0.0022	CC[C@@H]1[C@H](F)C(=O)N[C@@H]1COc1nccc2cc(C(N)=O)c3c(c12)CC(C)(C)O3 [Example 63, 1-(((2S,3S,4S)-3-ethyl-4-fluoro-5-oxopyrrolidin-2-yl)methoxy)-8,8-dimethyl-8,9-dihydrofuro[2,3-h]isoquinoline-6-carboxamide]

Compound	IC50 [µM]
1-(((2S,3S,4S)-3-ethyl-4-fluoro-5-oxotetrahydrofuran-2-yl)methoxy)-8-methyl-8,9-dihydrofuro[2,3-h]isoquinoline-6-carboxamide [Example 51]	0.0031
1-(((2S,3S,4S)-3-ethyl-4-fluoro-5-oxotetrahydrofuran-2-yl)methoxy)-8-methyl-8,9-dihydrofuro[2,3-h]isoquinoline-6-carboxamide [Example 52]	0.0013

Same assay, conditions: ATP 500 μM; FL-[…] peptide 1.5 μM; IRAK4 0.6 nM; 60 min room temperature; Caliper LABCHIP 3000

IC50 [µM]	Compound
1.72	CC[C@@H]1CC(=O)N[C@@H]1COc1nccc2cc(C(N)=O)c3nc(C(F)(F)F)cn3c12 [Example 30, 1-(((2S,3R)-3-ethyl-5-oxopyrrolidin-2-yl)methoxy)-8-(trifluoromethyl)imidazo[1,2-a][1,7]naphthyridine-6-carboxamide]

Tested on: Human whole blood, IL-6 levels after TLR2 agonist lipoteichoic acid
Assay: IRAK4 Whole Blood Assay
Type: cell-based
Settings: compounds 60 minutes at 37° C., lipoteichoic acid 10 μg/mL for 5 hours
Description: IRAK4 Whole Blood Assay Human whole blood containing the anti-coagulant ACD-A was plated in 384-well plate (25 μL/well) and incubated with compounds for 60 minutes at 37° C. in a 5% CO2 incubator. The blood was stimulated with a TLR2 agonist, 10 μg/mL final concentration of lipoteichoic acid (Invivogen, San Diego, CA) in 25 μL RPMI (Gibco) for 5 hours in a 5% CO2 incubator. At the end of the incubation, plates were centrifuged at 2300 rpm for 5 minutes. Supernatants were harvested and analyzed for IL-6 levels by Flow Cytometry beads assay (BD Biosciences, San Jose, CA).

IC50 [µM]	Compound
1.42	NC(=O)c1cc2cccc(OC[C@@H]3CCC(=O)N3)c2n2ccnc12 [Example 1, (S)-9-((5-oxopyrrolidin-2-yl)methoxy)imidazo[1,2-a]quinoline-4-carboxamide]
0.306	CC[C@@H]1CC(=O)N[C@@H]1COc1cccc2cc(C(N)=O)c3nccn3c12 [Example 2, 9-(((2S,3R)-3-ethyl-5-oxopyrrolidin-2-yl)methoxy)imidazo[1,2-a]quinoline-4-carboxamide]
0.152	CC[C@H]1CC(=O)N[C@@H]1COc1cccc2cc(C(N)=O)c3nccn3c12 [Example 3, 9-(((2S,3S)-3-ethyl-5-oxopyrrolidin-2-yl)methoxy)imidazo[1,2-a]quinoline-4-carboxamide]
0.593	CC[C@H]1[C@@H](COc2cccc3cc(C(N)=O)c4nccn4c23)NC(=O)[C@@H]1F [Example 4, 9-(((2S,3S,4R)-3-ethyl-4-fluoro-5-oxopyrrolidin-2-yl)methoxy)imidazo[1,2-a]quinoline-4-carboxamide]

Compound	IC50 [µM]
1-(((2S,3S,4S)-3-ethyl-4-fluoro-5-oxotetrahydrofuran-2-yl)methoxy)-8-methyl-8,9-dihydrofuro[2,3-h]isoquinoline-6-carboxamide [Example 51]	0.399
